In patent US20020010317A1, “Method for generating immunogens that elicit neutralizing antibodies against fusion-active regions of HIV envelope proteins” (priority 2000, published 2002):

Legend:
[1] = system: HIV-1 envelope mediated cell-cell fusion; details: cited from earlier work
gp41 (HXB2 strain) = gp41 (HXB2 strain) (Human immunodeficiency virus type 1 group M subtype B, UniProt P04578)
[2] = system: divergent HIV-1 virus isolates; test: immunization of guinea pigs with P-18, neutralizing antibody response; type: in vivo, guinea pig; details: two of three animals; 100 μg intramuscularly in Freund's adjuvant
Method: Antibody binding assays can be used to determine the ability of the immunogen vaccines to generate an immune response to various forms of envelope (native vs. denatured). Virus neutralization assays can be used to characterize the antibody response raised against the gp41 domains. The most encouraging results have been from animals immunized with the peptide P-18 modeling the C-helix entry domain (amino acid residues 643-678 of gp41 ).
Guinea pigs were immunized intramuscularly with 100 μg of P-18 formulated in either Freund's complete (prime) or incomplete (boost) adjuvant. Animals were immunized on days 0, 21, 34, 48 and 62. Blood was collected on days 44,58 and 72. In our initial screen, sera at a 1:10 dilution were tested for the ability to inhibit virus-induced cell killing. In these assays, two of the three animals receiving the P-18 peptide (guinea pigs 233 and 234) were able to block the cytopathic effects of a pair of prototypic HIV-1 isolates. Against the MN isolate, >80% protection was achieved, while against the RF isolate, protection was >50%.

Sequence of gp41 (HXB2 strain) (P04578 512-856): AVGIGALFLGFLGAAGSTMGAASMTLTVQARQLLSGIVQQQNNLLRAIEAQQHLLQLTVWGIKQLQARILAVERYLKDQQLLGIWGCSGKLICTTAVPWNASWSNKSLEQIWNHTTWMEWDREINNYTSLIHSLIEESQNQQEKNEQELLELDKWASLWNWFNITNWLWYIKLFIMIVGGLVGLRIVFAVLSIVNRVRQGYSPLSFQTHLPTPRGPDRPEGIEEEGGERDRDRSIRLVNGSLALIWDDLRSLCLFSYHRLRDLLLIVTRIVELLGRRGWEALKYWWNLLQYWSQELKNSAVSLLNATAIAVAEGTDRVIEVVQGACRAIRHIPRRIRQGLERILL

In the case of “NNLLRAIEAQQHLLQLTVWQIKQLQARILAVERYLKDQ (NNLLRAIEAQQHLLQLTVWGIKQLQARILAVERYLKDQ) [DP-107]”, the “level inhibiting cell-cell fusion” value [1] is given as “sub-μg/ml levels”.
With P-18-GGG-YPYDVPDYAGPG [P-18HA] the “binding to and co-immunoprecipitation of gp41” value (gp41 (HXB2 strain)) was “bound to and co-immunoprecipitated gp41”.
In the case of enfuvirtide, the “neutralizing antibody response in immunized animals” value [2] is listed as “exhibited a neutralizing antibody response against divergent virus isolates” and the “concentration inhibiting envelope mediated cell-cell fusion” value ([1]; concentrations as low as) is listed as “about 1 ng/ml”.
